# Source: PubChem BioAssay AID248 (DTP/NCI, 2004)
# Values joined by “and” are separate entries in the source; they are usually repeats but may differ in a detail not shown here. Equal entries are not always repeated. Inconclusive results and toxic doses are left out.
# Tested on: L1210 leukemia ip in BDF1 mice, survival T/C
# Assay: NCI In Vivo Anticancer Drug Screen. Data for tumor model L1210 Leukemia (intraperitoneal) in B6D2F1 (BDF1) mice
# Conditions: endpoint: mean survival time, higher = longer survival
# In short: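 In this screen, tumor-bearing mice given compound are compared to those given vehicle, and their survival values are reported as a treated-to-control quotient.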
# [1] = dose: 50.0 mg/kg/injection, schedule: Q01DX001 (ip), vehicle: carboxymethylcellulose (CMC)
# [2] = dose: 100.0 mg/kg/injection, schedule: Q01DX001 (ip), vehicle: carboxymethylcellulose (CMC)
# [3] = dose: 200.0 mg/kg/injection, schedule: Q01DX001 (ip), vehicle: carboxymethylcellulose (CMC)
# [4] = dose: 400.0 mg/kg/injection, schedule: Q01DX001 (ip), vehicle: carboxymethylcellulose (CMC)
# [5] = dose: 100.0 mg/kg/injection, schedule: Q04DX003 (ip), vehicle: saline
# [6] = dose: 200.0 mg/kg/injection, schedule: Q04DX003 (ip), vehicle: saline
# [7] = dose: 400.0 mg/kg/injection, schedule: Q04DX003 (ip), vehicle: saline
compound,measurement,setting,value
Cc1cc(N(CCOS(C)(=O)=O)CCOS(C)(=O)=O)ccc1C=Nc1ccccc1C(=O)O,T/C,"dose: 2.5 mg/kg/injection, schedule: Q04DX003 (ip), vehicle: Klucel (hydroxypropylcellulose) (HPC)",124 % of control
same,T/C,"dose: 5.0 mg/kg/injection, schedule: Q04DX003 (ip), vehicle: Klucel (hydroxypropylcellulose) (HPC)",113 % of control
same,T/C,"dose: 10.0 mg/kg/injection, schedule: Q04DX003 (ip), vehicle: Klucel (hydroxypropylcellulose) (HPC)",109 % of control
same,T/C,"dose: 40.0 mg/kg/injection, schedule: Q04DX003 (ip), vehicle: Klucel (hydroxypropylcellulose) (HPC)",153 % of control
Cc1ccc(C2C(C(=O)O)C2c2ccccc2)cc1 (stereo not given),T/C,"dose: 100.0 mg/kg/injection, schedule: Q04DX002 (ip), vehicle: Klucel (hydroxypropylcellulose) (HPC)",106 % of control
same,T/C,"dose: 200.0 mg/kg/injection, schedule: Q04DX002 (ip), vehicle: Klucel (hydroxypropylcellulose) (HPC)",95 % of control
same,T/C,"dose: 400.0 mg/kg/injection, schedule: Q04DX002 (ip), vehicle: Klucel (hydroxypropylcellulose) (HPC)",92 % of control
O=C1[O][Hg][c]2cccc3cccc1c23,T/C,"dose: 5.0 mg/kg/injection, schedule: Q04DX003 (ip), vehicle: saline with Tween-80",101 % of control
same,T/C,"dose: 10.0 mg/kg/injection, schedule: Q04DX003 (ip), vehicle: saline with Tween-80",95 % of control
O=C1OC(=O)C2C3CC(C(Br)C3C(F)(Br)Br)C12 (stereo not given),T/C,"dose: 100.0 mg/kg/injection, schedule: Q01DX009 (ip), vehicle: saline with Tween-80",87 % of control
same,T/C,"dose: 100.0 mg/kg/injection, schedule: Q04DX003 (ip), vehicle: saline with Tween-80",115 % of control
same,T/C,"dose: 200.0 mg/kg/injection, schedule: Q01DX009 (ip), vehicle: saline with Tween-80",93 % of control
same,T/C,"dose: 200.0 mg/kg/injection, schedule: Q04DX003 (ip), vehicle: saline with Tween-80",98 % of control
same,T/C,"dose: 400.0 mg/kg/injection, schedule: Q01DX009 (ip), vehicle: saline with Tween-80",90 % of control
same,T/C,"dose: 400.0 mg/kg/injection, schedule: Q04DX003 (ip), vehicle: saline with Tween-80",91 % of control
CC1(C)C(=O)Nc2ccccc2N1C(=O)CN1CCCC1,T/C,"dose: 9.37 mg/kg/injection, schedule: Q01DX009 (ip), vehicle: acetone",97 % of control
same,T/C,"dose: 18.75 mg/kg/injection, schedule: Q01DX009 (ip), vehicle: acetone",88 % of control
same,T/C,"dose: 37.5 mg/kg/injection, schedule: Q01DX009 (ip), vehicle: acetone",98 % of control
same,T/C,"dose: 37.5 mg/kg/injection, schedule: Q04DX003 (ip), vehicle: saline",100 % of control
same,T/C,"dose: 75.0 mg/kg/injection, schedule: Q01DX001 (ip), vehicle: saline",102 % of control
same,T/C,"dose: 75.0 mg/kg/injection, schedule: Q04DX003 (ip), vehicle: saline",91 % of control
same,T/C,"dose: 150.0 mg/kg/injection, schedule: Q01DX001 (ip), vehicle: saline",109 % of control
CCC1=CCC=CC1,T/C,[1],101 % of control
same,T/C,[2],104 % of control
same,T/C,[3],104 % of control
same,T/C,[4],109 % of control
O=P(Cc1ccccc1)(Cc1ccccc1)Cc1ccccc1,T/C,"dose: 100.0 mg/kg/injection, schedule: Q01DX009 (ip), vehicle: Klucel (hydroxypropylcellulose) (HPC)",100 % of control
same,T/C,"dose: 200.0 mg/kg/injection, schedule: Q01DX009 (ip), vehicle: Klucel (hydroxypropylcellulose) (HPC)",91 % of control
same,T/C,"dose: 400.0 mg/kg/injection, schedule: Q01DX009 (ip), vehicle: Klucel (hydroxypropylcellulose) (HPC)",96 % of control
C=CCn1cnc2c(=S)nc[nH]c21,T/C,"dose: 12.0 mg/kg/injection, schedule: Q01DX015 (ip), vehicle: other",124 % of control
same,T/C,"dose: 37.5 mg/kg/injection, schedule: Q01DX Z (ip), vehicle: alkali diluted with saline",166 % of control
same,T/C,"dose: 63.0 mg/kg/injection, schedule: Q01DX015 (ip), vehicle: other",92 % of control
same,T/C,"dose: 75.0 mg/kg/injection, schedule: Q01DX Z (ip), vehicle: alkali diluted with saline",114 % of control
same,T/C,"dose: 100.0 mg/kg/injection, schedule: Q01DX001 (ip), vehicle: other",116 % of control
same,T/C,"dose: 108.0 mg/kg/injection, schedule: Q01DX015 (ip), vehicle: other",87 % of control
same,T/C,"dose: 150.0 mg/kg/injection, schedule: Q01DX Z (ip), vehicle: alkali diluted with saline",92 % of control
CC1=C(Cl)C(Cl)(Cl)C(=O)C(=O)C1(Cl)Cl,T/C,"dose: 6.25 mg/kg/injection, schedule: Q01DX009 (ip), vehicle: saline sonified",100 % of control
same,T/C,"dose: 6.25 mg/kg/injection, schedule: Q04DX003 (ip), vehicle: Klucel (hydroxypropylcellulose) (HPC)",100 % of control
same,T/C,"dose: 12.5 mg/kg/injection, schedule: Q01DX009 (ip), vehicle: saline sonified",102 % of control
same,T/C,"dose: 12.5 mg/kg/injection, schedule: Q04DX003 (ip), vehicle: Klucel (hydroxypropylcellulose) (HPC)",95 % of control
same,T/C,"dose: 25.0 mg/kg/injection, schedule: Q01DX009 (ip), vehicle: saline sonified",92 % of control
same,T/C,"dose: 25.0 mg/kg/injection, schedule: Q04DX003 (ip), vehicle: Klucel (hydroxypropylcellulose) (HPC)",95 % of control
Nc1cc(Nc2cccc(Cl)c2)nc(N)n1,T/C,[2],94 % of control
O=Cc1ccccc1OCCCC[P+](c1ccccc1)(c1ccccc1)c1ccccc1,T/C,"dose: 5.0 mg/kg/injection, schedule: Q01DX001 (ip), vehicle: saline",111 % of control
same,T/C,"dose: 10.0 mg/kg/injection, schedule: Q01DX001 (ip), vehicle: saline",107 % of control
same,T/C,"dose: 20.0 mg/kg/injection, schedule: Q01DX001 (ip), vehicle: saline",102 % of control
CC(CN(CCNc1ccccc1)c1ccccc1)c1ccccc1 (stereo not given),T/C,"dose: 25.0 mg/kg/injection, schedule: Q01DX009 (ip), vehicle: other",102 % of control
same,T/C,"dose: 50.0 mg/kg/injection, schedule: Q01DX009 (ip), vehicle: other",105 % of control
same,T/C,"dose: 100.0 mg/kg/injection, schedule: Q01DX009 (ip), vehicle: other",100 % of control
same,T/C,[5],100 % of control
same,T/C,"dose: 200.0 mg/kg/injection, schedule: Q01DX009 (ip), vehicle: other",104 % of control
same,T/C,[6],92 % of control
same,T/C,"dose: 300.0 mg/kg/injection, schedule: Q01DX009 (ip), vehicle: other",96 % of control
same,T/C,[7],86 % of control
O=C(CCCC(=O)N/N=C/c1cc(Cl)ccc1O)N/N=C\c1cc(Cl)ccc1O,T/C,"dose: 50.0 mg/kg/injection, schedule: Q01DX001 (ip), vehicle: saline",98 % of control
same,T/C,"dose: 100.0 mg/kg/injection, schedule: Q01DX001 (ip), vehicle: saline",93 % of control
same,T/C,"dose: 200.0 mg/kg/injection, schedule: Q01DX001 (ip), vehicle: saline",96 % of control
same,T/C,"dose: 400.0 mg/kg/injection, schedule: Q01DX001 (ip), vehicle: saline",98 % of control
CCOc1ccc(/C=N/Nc2nnc(N/N=C/c3ccc(OCC)c(OCC)c3)c3ccccc23)cc1OCC,T/C,[1],95 % of control
CNC(=O)Nc1cccc2ccccc12,T/C,[2],95 % of control
same,T/C,"dose: 100.0 mg/kg/injection, schedule: Q01DX009 (ip), vehicle: carboxymethylcellulose (CMC)",93 % of control and 89 % of control
same,T/C,"dose: 100.0 mg/kg/injection, schedule: Q04DX002 (ip), vehicle: carboxymethylcellulose (CMC)",106 % of control
same,T/C,"dose: 100.0 mg/kg/injection, schedule: Q04DX003 (ip), vehicle: carboxymethylcellulose (CMC)",97 % of control
same,T/C,[3],101 % of control
same,T/C,"dose: 200.0 mg/kg/injection, schedule: Q01DX009 (ip), vehicle: carboxymethylcellulose (CMC)",98 % of control and 101 % of control
same,T/C,"dose: 200.0 mg/kg/injection, schedule: Q04DX002 (ip), vehicle: carboxymethylcellulose (CMC)",100 % of control
same,T/C,"dose: 200.0 mg/kg/injection, schedule: Q04DX003 (ip), vehicle: carboxymethylcellulose (CMC)",96 % of control
same,T/C,[4],97 % of control
same,T/C,"dose: 400.0 mg/kg/injection, schedule: Q01DX009 (ip), vehicle: carboxymethylcellulose (CMC)",93 % of control and 86 % of control
same,T/C,"dose: 400.0 mg/kg/injection, schedule: Q04DX002 (ip), vehicle: carboxymethylcellulose (CMC)",99 % of control
same,T/C,"dose: 400.0 mg/kg/injection, schedule: Q04DX003 (ip), vehicle: carboxymethylcellulose (CMC)",97 % of control
CCNC(=S)Nc1ccc(OCC)cc1,T/C,"dose: 100.0 mg/kg/injection, schedule: Q04DX002 (ip), vehicle: saline with Tween-80",89 % of control
same,T/C,"dose: 200.0 mg/kg/injection, schedule: Q04DX002 (ip), vehicle: saline with Tween-80",95 % of control
same,T/C,"dose: 400.0 mg/kg/injection, schedule: Q04DX002 (ip), vehicle: saline with Tween-80",100 % of control
O=C(NCCCOc1ccc([N+](=O)[O-])cc1Cl)Nc1ccc(S(=O)(=O)F)cc1,T/C,"dose: 75.0 mg/kg/injection, schedule: Q01DX001 (ip), vehicle: carboxymethylcellulose (CMC)",98 % of control
same,T/C,[5],103 % of control
same,T/C,"dose: 150.0 mg/kg/injection, schedule: Q01DX001 (ip), vehicle: carboxymethylcellulose (CMC)",89 % of control
same,T/C,[6],103 % of control
same,T/C,"dose: 300.0 mg/kg/injection, schedule: Q01DX001 (ip), vehicle: carboxymethylcellulose (CMC)",87 % of control
same,T/C,[7],105 % of control
